Laboratory results taken from patent US12552753B2, “Methods and compositions for targeting Tregs using CCR8 inhibitors” (Nanjing Immunophage Biomedical Co., Ltd., priority 2020, dated 2026).

biological target: CCR8 (Homo sapiens, UniProt P51685); assay: Tango assay (Tango-CCR8-Gal4-CHO-K1 cells, CCL1-stimulated, ONE-Glo luminescence); settings: Tango Assay IC50, Inhibition of CCR8 Tango cell in vitro
Sequence (P51685 whole entry, the tested form may be a part): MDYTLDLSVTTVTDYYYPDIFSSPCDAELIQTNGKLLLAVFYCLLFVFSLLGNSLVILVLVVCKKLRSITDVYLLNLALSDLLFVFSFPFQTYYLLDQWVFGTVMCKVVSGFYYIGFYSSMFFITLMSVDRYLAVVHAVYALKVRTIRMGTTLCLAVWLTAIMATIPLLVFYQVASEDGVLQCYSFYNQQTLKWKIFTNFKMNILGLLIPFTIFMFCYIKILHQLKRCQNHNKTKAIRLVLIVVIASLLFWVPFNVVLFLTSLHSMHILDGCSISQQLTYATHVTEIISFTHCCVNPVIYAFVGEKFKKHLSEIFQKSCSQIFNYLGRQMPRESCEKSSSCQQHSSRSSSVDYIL

Row | Structure (SMILES) | IC50
1 | Cc1ccccc1C(=O)Nc1ccc(S(=O)(=O)Nc2ccc3c(c2)N(CCN(C)C)C(=O)CO3)c2ccccc12 [Compound 20, N-(4-(N-(4-(2-(dimethylamino)ethyl)-3-oxo-3,4-dihydro-2H-benzo[b][1,4]oxazin-6-yl)sulfamoyl)naphthalen-1-yl)-2-methylbenzamide] | > 10000 nM
2 | CN(C)CC(=O)N1CCOc2ccc(NS(=O)(=O)c3ccc4ccccc4c3)cc21 [Compound 22, N-(4-(2-(dimethylamino)acetyl)-3,4-dihydro-2H-benzo[b][1,4]oxazin-6-yl)naphthalene-2-sulfonamide] | > 10000 nM
3 | Cc1ccccc1C(=O)Nc1ccc(S(=O)(=O)Nc2ccc3c(c2)N(CCN(C)C)CCO3)c2ccccc12 [Compound 23, N-(4-(N-(4-(2-(dimethylamino)ethyl)-3,4-dihydro-2H-benzo[b][1,4]oxazin-6-yl)sulfamoyl)naphthalen-1-yl)-2-methylbenzamide] | > 10000 nM
4 | Cc1ccccc1C(=O)Nc1ccc(S(=O)(=O)NCc2cccc(N(C)C)c2)c2ccccc12 [Compound 25, N-(4-(N-(3-(dimethylamino)benzyl)sulfamoyl)naphthalen-1-yl)-2-methylbenzamide] | 1040 nM
5 | Cc1ccccc1C(=O)Nc1ccc(S(=O)(=O)NC(C)c2cccc(N(C)C)c2)c2ccccc12 (centres unmarked) [Compound 26, N-(4-(N-(1-(3-(dimethylamino)phenyl)ethyl)sulfamoyl)naph-thalen-1-yl)-2-methylbenzamide] | 83 nM
6 | Cc1ccccc1C(=O)Nc1ccc(S(=O)(=O)NC2CCCc3ccccc32)c2ccccc12 (centres unmarked) [Compound 28, 2-methyl-N-(4-(N-(1,2,3,4-tetrahydronaphthalen-1-yl)sulfamoyl)naphtha-len-1-yl)benzamide] | 19 nM

Further lines, results first:

Row | IC50 | Structure (SMILES)
7 | 930 nM | Cc1ccccc1C(=O)Nc1ccc(S(=O)(=O)NC(C)C2CCCN(C(=O)OC(C)(C)C)C2)c2ccccc12 (centres unmarked) [Compound 24, tert-butyl 3-(1-(4-(2-methylbenzamido)naph-thalene-1-sulfonamido)ethyl)piper-idine-1-carboxylate]
8 | 26 nM | Cc1ccccc1C(=O)Nc1ccc(S(=O)(=O)NC2CCOc3ccccc32)c2ccccc12 (centres unmarked) [Compound 29, N-(4-(N-(chroman-4-yl)sulfamoyl)naphthalen-1-yl)-2-methylbenzamide]
9 | 73 nM | Cc1ccccc1C(=O)Nc1ccc(S(=O)(=O)NC2CCNc3ccccc32)c2ccccc12 (centres unmarked) [Compound 30, 2-methyl-N-(4-(N-(1,2,3,4-tetrahydroquinolin-4-yl)sulfamoyl)naphthalen-1-yl)benzamide]
10 | 1080 nM | CC(=O)N1CCC(NS(=O)(=O)c2ccc(NC(=O)c3ccccc3C)c3ccccc23)c2ccccc21 (centres unmarked) [Compound 31, N-(4-(N-(1-acetyl-1,2,3,4-tetrahydroquinolin-4-yl)sulfamoyl)naphthalen-1-yl)-2-methylbenzamide]
11 | 89 nM | Cc1ccccc1C(=O)Nc1ccc(S(=O)(=O)NC2CCN(C)c3ccccc32)c2ccccc12 (centres unmarked) [Compound 32, 2-methyl-N-(4-(N-(1-methyl-1,2,3,4-tetrahydroquinolin-4-yl)sulfamoyl)naphthalen-1-yl)benzamide]
12 | > 10000 nM | Cc1ccccc1C(=O)Nc1ccc(S(=O)(=O)Nc2ccc3c(c2)N(CCN(C)C)CC3)c2ccccc12 [Compound 33, N-(4-(N-(1-(2-(dimethylamino)ethyl)indolin-6-yl)sulfamoyl)naphthalen-1-yl)-2-methylbenzamide]
13 | > 10000 nM | Cc1ccccc1C(=O)Nc1ccc(S(=O)(=O)Nc2ccc3c(c2)CN(CCCN(C)C)C3)c2ccccc12 [Compound 35, N-(4-(N-(2-(3-(dimethylamino)propyl)isoindolin-5-yl)sulfamoyl)naphthalen-1-yl)-2-methylbenzamide]

same assay, conditions: read-out: Tango Assay IC50, Inhibition of CCR8 Tango cell in vitro

Row | Structure (SMILES) | IC50
14 | Cc1ccccc1C(=O)Nc1ccc(S(=O)(=O)NC(C)C2CCCNC2)c2ccccc12 (centres unmarked) [Compound 17, 2-methyl-N-(4-(N-(1-(piperidin-3-yl)ethyl)sulfamoyl)naph-thalen-1-yl)benzamide] | 112 nM
